In patent US20240391871A1, “SUBSTITUTED HYDROXYMETHYL PYRROLIDINES AND MEDICAL USES THEREOF” (ATROGI AB, priority 2021, published 2024):
Where a name gives a salt, the structure may show the parent alone.

Legend:
L6-myotubes = experiment: Glucose uptake (3H-2-deoxyglucose) in differentiated L6-myotubes; format: cell-based; settings: compound 1×10^−5 M; for Emax at 10 µM: read-out: Biological example 1: glucose uptake, activity compared to that of isoproterenol
Description: (§1) L6-myoblasts were grown in Dulbecco's Modified Eagle's Medium (DMEM) containing 1 g/L glucose supplemented with 10% fetal bovine serum, 2 mM L-Glutamine, 50 U/mL penicillin, 50 μg/mL streptomycin and 10 mM HEPES. Cells were plated at 1×10^5 cells per mL in 24-well plates. After reaching 90% confluence the cells were grown in medium containing 2% FBS for 7 days where upon cells differentiated into myotubes.
Differentiated L6-myotubes were serum-starved overnight in medium containing 0.5% fatty-acid free BSA and stimulated with an agonist, with a final concentration of 1×10^−5 M. After 1 h 40 min the cells were washed with warm glucose free medium or PBS twice and another portion of agonist was added to the glucose free medium. After 20 min the cells were exposed to 50 nM ^3H-2-deoxyglucose for 10 min before washed with ice cold glucose free medium or PBS three times and lysed with 0.2 M NaOH, 400 μL/well, for 1 h at 60° C. The cell lysate was mixed with 4 mL scintillation buffer (Emulsifier Safe, Perkin Elmer) and the radioactivity was detected in a β-counter (Tri-Carb 4810TR, Perkin Elmer). The activity for each compound is compared to that of isoproterenol.

[1] = system: Intracellular cAMP levels; experiment: Measurement of intracellular cAMP levels in differentiated L6 cells; format: cell-based; settings: compound 1×10^−5 M, 15 min; for Emax at 10 µM: Rattus norvegicus, L6, 0.25 h, read-out: Biological example 2: intracellular cAMP levels, activity compared to that of isoproterenol
Description: as §1
Differentiated cells were serum-starved overnight and stimulated with an agonist, final concentration 1×10^−5 M, for 15 min in stimulation buffer (HBSS supplemented with 1% BSA, 5 mM HEPES and 1 mM IBMX, pH 7.4). The medium was aspirated and 100 μL of 95% EtOH was added to each well of the 24-well plate and cells were kept at −20° C. overnight. The EtOH was allowed to evaporate and 500 μL of lysis buffer (1% BSA, 5 mM HEPES and 0.3% Tween-20, pH 7.4) was added to each well. The plate was kept at −80° C. for 30 min and then at −20° C. until the day of detection when the samples were thawed. Intracellular cAMP levels were detected using an alpha screen cAMP kit (6760635D from Perkin Elmer). The activity for each compound is compared to that of isoproterenol.

Row | SMILES | Emax at 10 µM (L6-myotubes) [%] | Emax at 10 µM [1] [%] | Biological example 1: glucose uptake, activity compared to that of isoproterenol (L6-myotubes) | Biological example 2: intracellular cAMP levels, activity compared to that of isoproterenol [1]
1 | CO[C@H]1CC[C@H](C[C@@H]2CC[C@H]([C@H](O)c3cncc(F)c3)N2)CC1 [Example 9, (R)-(5-Fluoropyridin-3-yl)(2R,5S)-5-(((1r,4S)-4-methoxycyclohexyl)methyl) -pyrrolidin-2-yl)methanol dihydrochloride] | 25 to 50 | < 25 |  | 
2 | COc1ccc(C[C@@H]2CC[C@H]([C@@H](O)c3cccc(F)c3)N2)cc1 [Example 14, (S)-(3-Fluorophenyl)((2R,5S)-5-(4-methoxybenzyl)pyrrolidin-2-yl)methanol hydrochloride] | > 75 | < 25 |  | 
3 | O[C@@H](c1cncc(F)c1)[C@H]1CC[C@H](Cc2ccc(Cl)cc2)N1 [Example 32, (S)-(2R,5R)-5-(4-Chlorobenzyl)pyrrolidin-2-yl)(5-fluoropyridin-3-yl) -methanol dihydrochloride] | > 75 | < 25 |  | 
4 | CO[C@H]1CC[C@H](C[C@H]2CC[C@H]([C@@H](O)c3cccc(F)c3)N2)CC1.Cl [Example 4, (S)-(3-Fluorophenyl)((2R,5R)-5-(((1r,4R)-4-methoxycyclohexyl)-methyl) -pyrrolidin-2-yl)methanol hydrochloride] |  |  | + (between 50 and 25%) | − (less than 25%)
5 | CC(=O)N(Cc1ccccc1)[C@H]1CC[C@@H](C[C@@H]2CC[C@H]([C@@H](O)c3cccc(F)c3)N2)CC1 [Example 35, N-Benzyl-N-((1R,4s)-4-(((2S,5R)-5-((S)-(3-fluorophenyl)(hydroxy) -methyl)pyrrolidin-2-yl)methyl)cyclohexyl)acetamide hydrochloride] | 25 to 50 | < 25 |  | 
6 | CS(=O)(=O)N[C@H]1CC[C@H](C[C@@H]2CC[C@H]([C@H](O)c3cccc(F)c3)N2)CC1 [Example 46, N-((1S,4r)-4-(((2S,5R)-5-((R)-(3-Fluorophenyl)(hydroxy)methyl)pyrrolidin-2-yl)methyl)cyclohexyl)methanesulfonamide hydrochloride] | > 75 | < 25 |  | 
7 | O[C@@H](c1cccc(F)c1)[C@H]1CC[C@@H](Cc2ccc(Cl)cc2)N1 [Example 26, (S)-((2R,5S)-5-(4-Chlorobenzyl)pyrrolidin-2-yl)(3-fluorophenyl)methanol hydrochloride] | 50 to 75 | < 25 |  | 
8 | O[C@H](c1cccc(F)c1)[C@H]1CC[C@@H](Cc2ccc(Cl)cc2)N1 [Example 25, (R)-((2R,5S)-5-(4-Chlorobenzyl)pyrrolidin-2-yl)(3-fluorophenyl)methanol hydrochloride] | > 75 | < 25 |  | 
9 | CC(=O)N(Cc1ccccc1)[C@H]1CC[C@@H](C[C@@H]2CC[C@H]([C@H](O)c3cccc(F)c3)N2)CC1 [Example 33, N-Benzyl-N-((1R,4s)-4-(((25,5R)-5-((R)-(3-fluorophenyl)(hydroxy)methyl) -pyrrolidin-2-yl)methyl)cyclohexyl)acetamide hydrochloride] | 50 to 75 | < 25 |  | 
10 | CO[C@H]1CC[C@H](C[C@@]2(C)CC[C@H]([C@H](O)c3cccc(F)c3)N2)CC1 [Example 17, (R)-(3-Fluorophenyl)((2R,5R)-5-(((1r,4R)-4-methoxycyclohexyl)methyl)-5-methylpyrrolidin-2-yl)methanol] | > 75 | 25 to 50 |  | 
11 | COc1ccc(C[C@@]2(C)CC[C@H]([C@H](O)c3cccc(F)c3)N2)cc1 [Example 19, (R)-(3-Fluorophenyl)((2R,5R)-5-(4-methoxybenzyl)-5-methylpyrrolidin-2-yl)methanol hydrochloride] | > 75 | 25 to 50 |  | 
12 | COc1ccc(C[C@H]2CC[C@H]([C@@H](O)c3cccc(F)c3)N2)cc1 [Example 16, (S)-(3-Fluorophenyl)((2R,5R)-5-(4-methoxybenzyl)pyrrolidin-2-yl)methanol] | 50 to 75 | < 25 |  | 
13 | CO[C@H]1CC[C@H](C[C@@H]2CC[C@H]([C@H](O)c3ccccc3F)N2)CC1.Cl [Example 5, (R)-(2-Fluorophenyl)((2R,5S)-5-(((1r,4S)-4-methoxycyclohexyl)methyl-(pyrrolidin-2-yl)methanol hydrochloride] | > 75 | < 25 |  | 
14 | CS(=O)(=O)N(Cc1ccccc1)[C@H]1CC[C@H](C[C@@H]2CC[C@H]([C@H](O)c3cccc(F)c3)N2)CC1 [Example 45, N-Benzyl-N-((1S,4r)-4-(((2S,5R)-5-((R)-(3-fluorophenyl)(hydroxy) -methyl)pyrrolidin-2-yl)methyl)cyclohexyl)methanesulfonamide hydrochloride] | < 25 | < 25 |  | 
15 | CO[C@H]1CC[C@H](C[C@@H]2CC[C@H]([C@@H](O)c3ccccc3F)N2)CC1 [Example 6, (S)-(2-Fluorophenyl)((2R,5S)-5-(((1r,4S)-4-methoxycyclohexyl)methyl) -pyrrolidin-2-yl)methanol hydrochloride] | 25 to 50 | < 25 |  | 
16 | CC(=O)N[C@H]1CC[C@H](C[C@@H]2CC[C@H]([C@@H](O)c3cccc(F)c3)N2)CC1 [Example 44, N-((1S,4r)-4-(((2S,5R)-5-((S)-(3-Fluorophenyl)(hydroxy)methyl)pyrrolidin-2-yl)methyl)cyclohexyl)acetamide hydrochloride] | 50 to 75 | < 25 |  | 
17 | CC(=O)N[C@H]1CC[C@@H](C[C@@H]2CC[C@H]([C@@H](O)c3cccc(F)c3)N2)CC1 [Example 36, N-((1R,4s)-4-(((2S,5R)-5-((S)-(3-Fluorophenyl)(hydroxy)methyl)pyrrolidin-2-yl)methyl)cyclohexyl)acetamide] | 50 to 75 | < 25 |  | 
18 | O[C@@H](c1cccc(F)c1)[C@H]1CC[C@H](Cc2ccc(Cl)cc2)N1 [Example 28, (S)-((2R,5R)-5-(4-Chlorobenzyl)pyrrolidin-2-yl)(3-fluorophenyl)methanol hydrochloride] | 50 to 75 | < 25 |  | 
19 | CO[C@H]1CC[C@H](C[C@@H]2CC[C@H]([C@@H](O)c3cncc(F)c3)N2)CC1 [Example 10, (S)-(5-Fluoropyridin-3-yl)((2R,5S)-5-(((1r,4S)-4-methoxycyclohexyl) -methyl)pyrrolidin-2-yl)methanol dihydrochloride] | 25 to 50 | < 25 |  | 
20 | CO[C@H]1CC[C@H](C[C@H]2CC[C@H]([C@H](O)c3cncc(F)c3)N2)CC1 [Example 11, (R)-(5-Fluoropyridin-3-yl)((2R,5R)-5-(((1r,4S)-4-methoxycyclohexyl) -methyl)pyrrolidin-2-yl)methanol dihydrochloride] | > 75 | < 25 |  | 
21 | COc1ccc(C[C@H]2CC[C@H]([C@@H](O)c3cncc(F)c3)N2)cc1 [Example 24, (S)-(5-Fluoropyridin-3-yl)((2R,5R)-5-(4-methoxybenzyl)pyrrolidin-2-yl)methanol dihydrochloride] | > 75 | < 25 |  | 
22 | COc1ccc(C[C@@H]2CC[C@H]([C@@H](O)c3cncc(F)c3)N2)cc1 [Example 22, (S)-(5-Fluoropyridin-3-yl)((2R,5S)-5-(4-methoxybenzyl)pyrrolidin-2-yl)methanol dihydrochloride] | > 75 | < 25 |  | 
23 | COc1ccc(C[C@@H]2CC[C@H]([C@H](O)c3cccc(F)c3)N2)cc1 [Example 13, (R)-(3-Fluorophenyl)((2R,5S)-5-(4-methoxybenzyl)pyrrolidin-2-yl)methanol] | > 75 | < 25 |  | 
24 | O[C@H](c1cncc(F)c1)[C@H]1CC[C@@H](Cc2ccc(Cl)cc2)N1 [Example 29, (R)-((2R,5S)-5-(4-Chlorobenzyl)pyrrolidin-2-yl)(5-fluoropyridin-3-yl) -methanol dihydrochloride] | > 75 | < 25 |  | 
25 | CC(=O)N(Cc1ccccc1)[C@H]1CC[C@H](C[C@@H]2CC[C@H]([C@@H](O)c3cccc(F)c3)N2)CC1 [Example 43, N-Benzyl-N-((1S,4r)-4-(((2S,5R)-5-((S)-(3-fluorophenyl)(hydroxy)methyl) -pyrrolidin-2-yl)methyl)cyclohexyl)acetamide hydrochloride] | 50 to 75 | < 25 |  | 
